Several values for one entry are separate records, joined by “and”; a condition that tells them apart may be missing. Equal entries are not always repeated.
The compounds below were run against T1, recombinant human GST-SYK (Homo sapiens, UniProt P43405) (assay: Homogeneous Time-Resolved Fluorescence (HTRF) assay for the recombinant human Syk enzyme). Conditions: GST-hSYK 5 pM, ATP 25 μM, IC50 rated in classes, read-out: rhSYK Activity.
T1 construct: purchased Carna Biosciences 08-176
Format: biochemical
Summary of the method: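 HTRF read-out, via Europium anti-phosphotyrosine antibody and SA-APC added with EDTA, measured phosphorylation of a 250 nM biotinylated substrate after 45 min at room temperature with 25 μM ATP and 5 mM magnesium. Enzyme was 5 pM GST-hSYK, preincubated 10 min with compound in Tris pH 7.5 buffer containing DTT.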
`Cc1cc(Nc2nccc(C(F)(F)F)n2)cc(-c2cnc(N[C@H]3CCC(=O)NC3)nc2)c1` [Example 2.73, (5S)-5-{[5-(3-methyl-5-{[4-(trifluoromethyl)pyrimidin-2-yl]amino}phenyl)pyrimidin-2-yl]amino}piperidin-2-one] gave an IC50 of under 100 nM. In the case of `Cc1cc(Nc2nccc(C(F)(F)F)n2)cc(-c2cnc(N3CCCC(O)C3)nc2)c1` (stereo not drawn) [Example 2.75, 1-[5-(3-methyl-5-{[4-(trifluoromethyl)pyrimidin-2-yl]amino}phenyl)pyrimidin-2-yl]piperidin-3-ol], the IC50 is reported as under 100 nM. For `Cc1cc(Nc2nccc(C(F)(F)F)n2)cc(-c2cnc(NC3(C(=O)O)CCCC3)nc2)c1` [Example 2.76, 1-{[5-(3-methyl-5-{[4-(trifluoromethyl)pyrimidin-2-yl]amino}phenyl)pyrimidin-2-yl]amino}cyclopentanecarboxylic acid], the IC50 was under 100 nM. For `Cc1cc(Nc2nccc(C(F)(F)F)n2)cc(-c2cnc(N3CCC(C(=O)O)CC3)nc2)c1` [Example 2.79, 1-[5-(3-methyl-5-{[4-(trifluoromethyl)pyrimidin-2-yl]amino}phenyl)pyrimidin-2-yl]piperidine-4-carboxylic acid], the IC50 was under 100 nM. `Cc1cc(Nc2nccc(C(F)(F)F)n2)cc(-c2cnc(N(C)C(=O)CC#N)nc2)c1` [Example 2.80, 2-cyano-N-methyl-N-[5-(3-methyl-5-{[4-(trifluoromethyl)pyrimidin-2-yl]amino}phenyl)pyrimidin-2-yl]acetamide] showed an IC50 of under 100 nM. In the case of `Cc1cc(Nc2nccc(C(F)(F)F)n2)cc(-c2cnccn2)c1` [Example 3.2, N-(3-methyl-5-pyrazin-2-ylphenyl)-4-(trifluoromethyl)pyrimidin-2-amine], the IC50 is reported as 100 to 1000 nM and < 100 nM. For `CCOC(=O)CCc1cnc(-c2cccc(Nc3nccc(C(F)(F)F)n3)c2)cn1` [Example 3.3, ethyl 3-[5-(3-{[4-(trifluoromethyl)pyrimidin-2-yl]amino}phenyl)pyrazin-2-yl]propanoate], the IC50 was 1000 to 10000 nM. `O=C(O)CCc1cnc(-c2cccc(Nc3nccc(C(F)(F)F)n3)c2)cn1` [Example 3.4, 3-[5-(3-{[4-(trifluoromethyl)pyrimidin-2-yl]amino}phenyl)pyrazin-2-yl]propanoic acid] showed an IC50 of 100 to 1000 nM. In the case of `COc1ccnc(Nc2cc(C)cc(-c3cnc(CCC(=O)O)cn3)c2)n1` [Example 3.6, 3-(5-{3-[(4-methoxypyrimidin-2-yl)amino]-5-methylphenyl}pyrazin-2-yl)propanoic acid], the IC50 is reported as under 100 nM. For `CCOC(=O)CCc1cnc(-c2cc(C)cc(Nc3nccc(C(F)(F)F)n3)c2)cn1` [Example 3.7, ethyl 3-[5-(3-methyl-5-{[4-(trifluoromethyl)pyrimidin-2-yl]amino}phenyl)pyrazin-2-yl]propanoate], the IC50 was 100 to 1000 nM. For `Cc1cc(Nc2nccc(C(F)(F)F)n2)cc(-c2cnc(CCC(=O)O)cn2)c1` [Example 3.8, 3-[5-(3-methyl-5-{[4-(trifluoromethyl)pyrimidin-2-yl]amino}phenyl)pyrazin-2-yl]propanoic acid], the IC50 was under 100 nM. `CCOC(=O)CCc1cnc(-c2cc(C)cc(Nc3nccc(C)n3)c2)cn1` [Example 3.9, ethyl 3-(5-{3-methyl-5-[(4-methylpyrimidin-2-yl)amino]phenyl}pyrazin-2-yl)propanoate] was tested, and the IC50 was 100 to 1000 nM. `Cc1cc(Nc2nccc(C)n2)cc(-c2cnc(CCC(=O)O)cn2)c1` [Example 3.10, 3-(5-{3-methyl-5-[(4-methylpyrimidin-2-yl)amino]phenyl}pyrazin-2-yl)propanoic acid] gave an IC50 of 100 to 1000 nM. Compound `CCOC(=O)CCc1cnc(-c2cc(C)cc(Nc3nccc(C4CC4)n3)c2)cn1` [Example 3.11, ethyl 3-(5-{3-[(4-cyclopropylpyrimidin-2-yl)amino]-5-methylphenyl}pyrazin-2-yl)propanoate] has an IC50 of under 100 nM.

Same assay, conditions: GST-hSYK 5 pM, ATP 25 μM, values in text, read-out: IC50
Compound `Cc1cc(Nc2nccc(C3CC3)n2)cc(-c2cnc(CCC(=O)O)nc2)c1` [Example 3.1, 3-(5-{3-[(4-cyclopropylpyrimidin-2-yl)amino]-5-methylphenyl}pyrimidin-2-yl)propanoic acid] has an IC50 of 51.6 nM.

Source: US9416111B2, “Substituted diazine and triazine spleen tyrosine kinease (Syk) inhibitors” (Merck Sharp & Dohme Corp., priority 2012, dated 2016)
